From publication PMC5974779, “Prediction of Drug-Induced Hepatotoxicity Using Long-Term Stable Primary Hepatic 3D Spheroid Cultures in Chemically Defined Conditions” (Toxicological Sciences, 2018)
Like-named read-outs stand apart in the source and are kept apart here.

What was measured:
rats = system: rats; design: method as in McGill et al., 2012b; settings: in vivo; ref McGill et al., 2012b; cited from earlier work
[1] = cited from earlier work; for Extent of hepatic metabolism: ref DrugBank and Prescribers' Digital Reference database
PHH 2D sandwich cultures = settings: PHH 2D sandwich cultures, 100x Cmax; ref Xu 2008; cited from earlier work
[2] = system: PHH spheroids (hanging-drop); settings: PHH hanging-drop spheroids, 100x Cmax; ref Proctor 2017; cited from earlier work
[3] = system: C57BL/6 mouse primary hepatocyte 3D spheroids; assay: Animal hepatocyte spheroid hepatotoxicity (ATP viability, 14 days), C57BL/6 (BL6) mouse; type: cell-based; settings: for hepatotoxicity evaluation in spheroids: C57BL/6 mouse hepatocyte spheroids, 1×, 5×, 20× human cmax, 14 days
[4] = system: CD1 mouse primary hepatocyte 3D spheroids; assay: Animal hepatocyte spheroid hepatotoxicity (ATP viability, 14 days), CD1 mouse; type: cell-based; settings: for hepatotoxicity evaluation in spheroids: CD1 mouse hepatocyte spheroids, 1×, 5×, 20× human cmax, 14 days
[5] = system: Wistar rat primary hepatocyte 3D spheroids; assay: Animal hepatocyte spheroid hepatotoxicity (ATP viability, 14 days), Wistar rat; type: cell-based; settings: for hepatotoxicity evaluation in spheroids: Wistar rat hepatocyte spheroids, 1×, 5×, 20× human cmax, 14 days
[6] = Animal hepatocyte spheroid hepatotoxicity (ATP viability, 14 days), minipig; type: cell-based, Gottingen minipig; settings: Gottingen, primary minipig hepatocyte 3D spheroids; minipig spheroids, no indication of hepatotoxicity
[7] = system: rhesus monkey primary hepatocyte 3D spheroids; assay: Animal hepatocyte spheroid hepatotoxicity (ATP viability, 14 days), rhesus monkey; type: cell-based; settings: for hepatotoxicity evaluation in spheroids: rhesus monkey hepatocyte spheroids, 1×, 5×, 20× human cmax, 14 days
[8] = system: primary human hepatocytes (PHH) 3D spheroids
in vitro = settings: human
clinical DILI in man = settings: cited from earlier work; for FDA (Severity): FDA drug labeling DILI concern; for Guo et al. (2005): ref Guo et al. (2005); for Xu et al. (2008): ref Xu et al. (2008); for Sakatis et al. (2012): ref Sakatis et al. (2012); for Clinical DILI classification (Figure 5): structural analogue pairs, 2008 and others
[9] = therapeutic total cmax; ref PMID; cited from earlier work
[10] = system: rat, mouse, dog, and cynomolgus monkey; design: method as in Manning and Swartz, 1995; settings: ref Manning and Swartz, 1995; cited from earlier work
patients = settings: phase I clinical trial, ref McKenzie et al., 1995, cited from earlier work
[11] = system: Gottingen minipig primary hepatocyte 3D spheroids; assay: Animal hepatocyte spheroid hepatotoxicity (ATP viability, 14 days), minipig; type: cell-based; settings: minipig hepatocyte spheroids, 1×, 5×, 20× human cmax, 14 days
[12] = human liver, ref Yoon et al., 2016
[13] = DILI classification score, ref Suzuki et al. (2010)
[14] = FDA drug labeling DILI score, ref Chen et al., 2011
[15] = clinical DILI classification in man (POS/NEG)
[16] = clinical DILI classification used in this study, Supplementary Table 2, ref Chen et al., 2011, Guo et al., 2005, O'Brien et al., 2006, Sakatis et al., 2012, Suzuki et al., 2010, Xu et al., 2008
[17] = clinical DILI classification, Supplementary Table 1, ref Chen et al., 2011, Guo et al., 2005, O'Brien et al., 2006, Sakatis et al., 2012, Suzuki et al., 2010, Xu et al., 2008
[18] = reported pattern of liver damage, Supplementary Table 2, ref literature
[19] = clinical hepatotoxicity classification
[20] = ref Chen et al., 2011, Xu et al.

CC(=O)Nc1ccc(O)cc1 [Acetaminophen]
acetaminophen-induced hepatotoxicity in rats (rats): resistant to acetaminophen-induced hepatotoxicity
fraction inactivated by sulfation or glucuronidation [1, 12]: around 90%
fraction metabolically activated by CYP2E1 and CYP3A4 to NAPQI [1, 12]: 5%–10%
Extent of hepatic metabolism [1]: Extensive
2Dsw (Xu 2008) 100x (PHH 2D sandwich cultures): Positive
Hanging-drop spheroids (Proctor 2017) 100x [2]: Positive

Cc1ccc(-c2cc(C(F)(F)F)nn2-c2ccc(S(N)(=O)=O)cc2)cc1 [Celecoxib]
viability ([3]; C57BL/6 mouse spheroids, 20× cmax): < 2 % of respective controls
viability ([4]; CD1 mouse spheroids, 20× cmax): < 2 % of respective controls
viability ([5]; rat spheroids, 20× cmax): < 2 % of respective controls
viability at 14 days [6]: > 100%
viability ([7]; monkey spheroids, 20× cmax): < 2 % of respective controls
Chemically defined spheroids (this study) 20x [8]: Positive
viability at 14 days, 20 × cmax (in vitro): < 2%
Classified as (clinical DILI in man; in vivo): POS
Clinical DILI class (panel heading of Figure 4) (clinical DILI in man; in vivo): High DILI concern
DILI in vivo (clinical DILI in man; in vivo): POS
FDA (0-8) (clinical DILI in man; in vivo): 3
Suzuki et al. (2010) (clinical DILI in man; in vivo): 1
Type of DILI (clinical DILI in man; in vivo): Hepatocellular injury or Cholestatic injury
Cmax [9]: 2.55 µM
Extent of hepatic metabolism [1]: Extensive

O=c1[nH]c(=O)n([C@@H]2O[C@H](CO)[C@@H](O)[C@@H]2F)cc1I [Fialuridine]
Chemically defined spheroids (this study) 20x [8]: Positive
hepatotoxicity evaluation in CD-spheroids [8]: successfully detect fialuridine hepatotoxicity at clinically relevant concentrations
indications of hepatotoxicity in preclinical species [10]: did not show indications of hepatotoxicity
Suzuki et al. (2010) (clinical DILI in man; [13]): 2
FDA (Severity) (clinical DILI in man; ref Chen et al., 2011): most DILI concern
FDA (0-8) (clinical DILI in man; [14]): Discontinued
DILI in vivo (clinical DILI in man; [15]): POS
Classified as (clinical DILI in man; [16]): POS
DILI in vivo (clinical DILI in man; [17]): POS
O'Brien et al. (2003) (clinical DILI in man; clinical hepatotoxicity classification, ref O'Brien et al. (2003)): Severely
Type of DILI (clinical DILI in man; [18]): Hepatocellular injury, Cholestatic injury or Mixed hepatitis
Cmax [9]: 0.64 µM
Extent of hepatic metabolism [1]: Minimal
volunteers with lactic acidosis and acute liver failure (patients; few weeks after commencing therapy): 7 out of 15
volunteers who died (patients; of the 7 with acute liver failure): 5

CCc1nn(CCCN2CCN(c3cccc(Cl)c3)CC2)c(=O)n1CCOc1ccccc1 [Nefazodone]
hepatotoxicity evaluation in spheroids [3]: flagged as hepatotoxic
hepatotoxicity evaluation in spheroids [4]: flagged as hepatotoxic
hepatotoxicity evaluation in spheroids [5]: flagged as hepatotoxic
hepatotoxicity evaluation in spheroids [11]: flagged as hepatotoxic
hepatotoxicity evaluation in spheroids [7]: flagged as hepatotoxic
Chemically defined spheroids (this study) 20x [8]: Positive
hepatotoxicity evaluation in CD-spheroids ([8]; human, 14 days): severe toxicity at 5× and 20× of the therapeutic exposure levels
Guo et al. (2005) (clinical DILI in man; DILI classification score): 3
Suzuki et al. (2010) (clinical DILI in man; [13]): 3
FDA (0-8) (clinical DILI in man; [14]): 8
DILI in vivo (clinical DILI in man; [15]): POS
Classified as (clinical DILI in man; [16]): POS
DILI in vivo (clinical DILI in man; [17]): POS
Xu et al. (2008) (clinical DILI in man; clinical DILI classification): Positive
Sakatis et al. (2012) (clinical DILI in man; [19]): Hepatotoxic
Type of DILI (clinical DILI in man; [18]): Hepatocellular injury
Clinical DILI classification (Figure 5) (clinical DILI in man; [20]): DILI positive
Cmax [9]: 3.95 µM
Extent of hepatic metabolism [1]: Extensive
2Dsw (Xu 2008) 100x (PHH 2D sandwich cultures): Positive
Hanging-drop spheroids (Proctor 2017) 100x [2]: Positive

Cc1c(C)c2c(c(C)c1O)CCC(C)(COc1ccc(CC3SC(=O)NC3=O)cc1)O2 (stereo not shown) [Troglitazone]
hepatotoxicity evaluation in spheroids [3]: flagged as hepatotoxic
hepatotoxicity evaluation in spheroids [4]: flagged as hepatotoxic
hepatotoxicity evaluation in spheroids [5]: flagged as hepatotoxic
hepatotoxicity evaluation in spheroids [11]: flagged as hepatotoxic
hepatotoxicity evaluation in spheroids [7]: flagged as hepatotoxic
Chemically defined spheroids (this study) 20x [8]: Positive
hepatotoxicity evaluation in CD-spheroids [8]: clearly detected
Guo et al. (2005) (clinical DILI in man; DILI classification score): 3
Suzuki et al. (2010) (clinical DILI in man; [13]): 3
FDA (Severity) (clinical DILI in man; ref Chen et al., 2011): most DILI concern
FDA (0-8) (clinical DILI in man; [14]): Withdrawn
DILI in vivo (clinical DILI in man; [15]): POS
Classified as (clinical DILI in man; [16]): POS
DILI in vivo (clinical DILI in man; [17]): POS
Xu et al. (2008) (clinical DILI in man; clinical DILI classification): Positive
Sakatis et al. (2012) (clinical DILI in man; [19]): Hepatotoxic
Type of DILI (clinical DILI in man; [18]): Hepatocellular injury or Cholestatic injury
Clinical DILI classification (Figure 5) (clinical DILI in man; [20]): DILI positive
Cmax [9]: 6.08 µM
Extent of hepatic metabolism [1]: Extensive
2Dsw (Xu 2008) 100x (PHH 2D sandwich cultures): Positive
Hanging-drop spheroids (Proctor 2017) 100x [2]: Positive
